In data set [1] the target is T1, α-Glucosidase from Saccharomyces cerevisiae (Saccharomyces cerevisiae, UniProt P53341).
T1 construct: purchased Sigma Aldrich
As to the kind of experiment: α-Glucosidase inhibitory assay. Type of data set: biochemical. To be noted: for IC50: in vitro. The text has this: The analytical grade chemicals and reagents were used as such in experiments without any purification. Decibel melting point apparatus was used for checking the melting point of the synthesized compounds and are reported as uncorrected. The silica gel-precoated aluminum sheets for thin-layer chromatography (TLC) were employed to keep a vigil of the reaction progress.
The method adopted for performing α-glucosidase inhibitory assay was similar to our prevenient study, Thakral and Singh.

The target of data set [2] is α-amylase from malt. In words: α-Amylase inhibitory assay. To be noted: for IC50: in vitro. Format: biochemical. The text has this:
The analytical grade chemicals and reagents were used as such in experiments without any purification. Decibel melting point apparatus was used for checking the melting point of the synthesized compounds and are reported as uncorrected. The silica gel-precoated aluminum sheets for thin-layer chromatography (TLC) were employed to keep a vigil of the reaction progress. FT-IR (Diffuse Reflectance Method (DRS) -8000A, Shimadzu, Japan) spectrophotometer was utilized for recording infrared spectra and the Bruker Avance III, 400 MHz NMR spectrometer was employed for nuclear magnetic resonance spectra (^1H NMR, ^13C NMR; Chemical shift δ values- ppm). α-Glucosidase from Saccharomyces cerevisiae (EC 3.2.1.20, Sigma Aldrich) and α-amylase from malt (232-588-1, HiMedia) have been used for in vitro studies.
Xiao et al., and Yoshikawa et al., illustrated a method, with little modification this method has been adopted for measuring the activity.

T1 sequence (P53341 whole entry): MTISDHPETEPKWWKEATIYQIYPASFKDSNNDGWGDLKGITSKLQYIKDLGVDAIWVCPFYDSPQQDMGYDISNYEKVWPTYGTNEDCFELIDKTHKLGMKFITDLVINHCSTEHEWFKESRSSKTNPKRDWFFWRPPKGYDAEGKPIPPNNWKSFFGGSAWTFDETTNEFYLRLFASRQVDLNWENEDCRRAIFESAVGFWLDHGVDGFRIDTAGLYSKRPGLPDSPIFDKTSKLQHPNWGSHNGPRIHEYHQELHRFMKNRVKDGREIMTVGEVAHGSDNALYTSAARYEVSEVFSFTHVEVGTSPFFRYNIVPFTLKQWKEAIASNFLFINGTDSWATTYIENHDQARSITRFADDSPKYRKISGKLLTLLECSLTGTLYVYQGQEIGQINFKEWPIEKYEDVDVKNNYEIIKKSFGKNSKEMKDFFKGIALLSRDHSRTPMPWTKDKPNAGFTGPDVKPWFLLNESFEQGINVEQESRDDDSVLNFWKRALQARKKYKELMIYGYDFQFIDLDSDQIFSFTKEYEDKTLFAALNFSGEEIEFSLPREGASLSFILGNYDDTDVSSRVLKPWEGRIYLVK

Usually IC50 stands for the point on the concentration scale where inhibition reaches its midpoint. Lower therefore signals greater potency in that assay. What is called melting point is the temperature of the solid-liquid transition. With `O=C(Nc1cccc(Br)c1)c1cc(S(=O)(=O)Nc2ccc(Cl)cc2)c([N+](=O)[O-])cc1Cl` [Compound 5g, N-(3-Bromophenyl)-2-chloro-5-[(4-chlorophenyl)sulfamoyl]-4-nitrobenzamide], the melting point lay in the range of 181 to 183 °C. The molecule further registered an IC50 in data set [1] of 35.9 ± 0.6 µM. In data set [2], this molecule came in with an IC50 of 16.7 ± 0.41 µM.
As to `Cc1cc([N+](=O)[O-])ccc1NC(=O)c1cc(S(=O)(=O)Nc2ccc(Cl)cc2)c([N+](=O)[O-])cc1Cl` [Compound 5p, 2-Chloro-5-[(4-chlorophenyl)sulfamoyl]-N-(2-methyl-4-nitrophenyl)-4-nitrobenzamide], the melting point is 104 to 106 °C. In addition, half-maximal inhibition in data set [1] (IC50) was put at 19.5 ± 0.43 µM. Also, half-maximal inhibition in data set [2] (IC50) was put at 2.1 ± 0.52 µM.
`Cc1cccc(NC(=O)c2cc(S(=O)(=O)Nc3ccc(Cl)cc3)c([N+](=O)[O-])cc2Cl)c1` [Compound 5b, 2-Chloro-5-[(4-chlorophenyl)sulfamoyl]-N-(3-methylphenyl)-4-nitrobenzamide] came in with a melting point of 102 to 104 °C. This molecule came in with an IC50 in data set [1] of 24.8 ± 2.69 µM. This molecule also displayed an IC50 in data set [2] of 5.3 ± 1.23 µM.
Consider `O=C(NCc1ccco1)c1cc(S(=O)(=O)Nc2ccc(Cl)cc2)c([N+](=O)[O-])cc1Cl` [Compound 5u, 2-Chloro-5-[(4-chlorophenyl)sulfamoyl]-N-[(furan-2-yl)methyl]-4-nitrobenzamide], for which the melting point is 191 to 193 °C. 89 ± 1.76 µM corresponded to half-maximal inhibition in data set [1] (IC50). This molecule also had an IC50 in data set [2] of 38.2 ± 0.34 µM.
`Cc1ccc(NC(=O)c2cc(S(=O)(=O)Nc3ccc(Cl)cc3)c([N+](=O)[O-])cc2Cl)cc1` [Compound 5a, 2-Chloro-5-[(4-chlorophenyl)sulfamoyl]-N-(4-methylphenyl)-4-nitrobenzamide] returned a melting point of 90 to 92 °C. Further, the IC50 in data set [1] came out at 31.4 ± 1.66 µM. This molecule also yielded an IC50 in data set [2] of 7.4 ± 0.15 µM.
In the case of `Cc1ccccc1NC(=O)c1cc(S(=O)(=O)Nc2ccc(Cl)cc2)c([N+](=O)[O-])cc1Cl` [Compound 5c, 2-Chloro-5-[(4-chlorophenyl)sulfamoyl]-N-(2-methylphenyl)-4-nitrobenzamide], the melting point was 88 to 90 °C. In data set [1], the midpoint of inhibition, the IC50, lay at 26.8 ± 1.13 µM. In addition, the IC50 in data set [2] turned out to be 8 ± 0.71 µM.
In turn, `O=C(Nc1ccccc1[N+](=O)[O-])c1cc(S(=O)(=O)Nc2ccc(Cl)cc2)c([N+](=O)[O-])cc1Cl` [Compound 5k, 2-Chloro-5-[(4-chlorophenyl)sulfamoyl]-4-nitro-N-(2-nitrophenyl)benzamide] registered a melting point of 150 to 152 °C. The same molecule came in with a concentration for half-maximal inhibition (IC50) in data set [1] of 36.9 ± 1.3 µM. In addition, the midpoint of inhibition in data set [2], the IC50, lay at 12.5 ± 0.91 µM.
The corresponding values for `Cc1c(Cl)cccc1NC(=O)c1cc(S(=O)(=O)Nc2ccc(Cl)cc2)c([N+](=O)[O-])cc1Cl` [Compound 5l, 2-Chloro-N-(3-chloro-2-methylphenyl)-5-[(4-chlorophenyl)sulfamoyl]-4-nitrobenzamide] are 212 to 214 °C, 29 ± 0.86 µM and 6.3 ± 0.42 µM.
Molecule `O=C(Nc1cccc([N+](=O)[O-])c1)c1cc(S(=O)(=O)Nc2ccc(Cl)cc2)c([N+](=O)[O-])cc1Cl` [Compound 5r, 2-Chloro-5-[(4-chlorophenyl)sulfamoyl]-4-nitro-N-(3-nitrophenyl)benzamide] showed a melting point of 135 to 137 °C. This molecule also displayed an IC50 in data set [1] of 34.4 ± 0.62 µM. This molecule also showed an IC50 in data set [2] of 15.3 ± 1.24 µM.
`Cc1ccc([N+](=O)[O-])cc1NC(=O)c1cc(S(=O)(=O)Nc2ccc(Cl)cc2)c([N+](=O)[O-])cc1Cl` [Compound 5o, 2-Chloro-5-[(4-chlorophenyl)sulfamoyl]-N-(2-methyl-5-nitrophenyl)-4-nitrobenzamide]: the melting point lay in the range of 203 to 205 °C. The “inhibitory potential against α-glucosidase in comparison to standard drug acarbose” value in data set [1] (fold relative to acarbose) was “fourfold”. The IC50 in data set [1] was determined as 10.8 ± 0.52 µM. Moreover, the “inhibitory activity against α-amylase in comparison to standard drug acarbose” value in data set [2] (fold relative to acarbose) was “around six times”. This molecule registered an IC50 in data set [2] of 0.9 ± 0.31 µM.
`O=C(Nc1ccc([N+](=O)[O-])cc1Cl)c1cc(S(=O)(=O)Nc2ccc(Cl)cc2)c([N+](=O)[O-])cc1Cl` [Compound 5n, 2-Chloro-N-(2-chloro-4-nitrophenyl)-5-[(4-chlorophenyl)sulfamoyl]-4-nitrobenzamide] showed a melting point of 214 to 216 °C. In data set [1], this molecule gave an IC50 of 29.5 ± 1.53 µM. For the same molecule, in data set [2], the IC50 came out at 35.3 ± 0.45 µM.
The corresponding values for `O=C(Nc1ccc(Br)cc1)c1cc(S(=O)(=O)Nc2ccc(Cl)cc2)c([N+](=O)[O-])cc1Cl` [Compound 5f, N-(4-Bromophenyl)-2-chloro-5-[(4-chlorophenyl)sulfamoyl]-4-nitrobenzamide] are 200 to 202 °C, 50.2 ± 0.89 µM and 16 ± 0.33 µM.
Consider `C[C@H]1O[C@H](O[C@H]2[C@H](O)[C@@H](O)[C@@H](O[C@H]3[C@H](O)[C@@H](O)C(O)O[C@@H]3CO)O[C@@H]2CO)[C@H](O)[C@@H](O)[C@@H]1N[C@H]1C=C(CO)[C@@H](O)[C@H](O)[C@H]1O` (stereo partly drawn) [Acarbose, reference compound], for which the midpoint of inhibition in data set [2], the IC50, lay at 5.6 ± 0.3 µM.
Molecule `CCCNC(=O)c1cc(S(=O)(=O)Nc2ccc(Cl)cc2)c([N+](=O)[O-])cc1Cl` [Compound 5s, 2-Chloro-5-[(4-chlorophenyl)sulfamoyl]-4-nitro-N-propylbenzamide] registered a melting point of 116 to 118 °C. Besides, the IC50 in data set [1] was 106.2 ± 0.61 µM. Besides, in data set [2], the 50% inhibitory concentration (IC50) came to 48.05 ± 0.23 µM.
On to `O=C(Nc1ccncc1)c1cc(S(=O)(=O)Nc2ccc(Cl)cc2)c([N+](=O)[O-])cc1Cl` [Compound 5v, 2-Chloro-5-[(4-chlorophenyl)sulfamoyl]-4-nitro-N-(pyridin-4-yl)benzamide], for which the melting point was 197 to 199 °C. The same molecule showed a 50% inhibitory concentration (IC50) in data set [1] of 52.4 ± 1.92 µM. The molecule further had an IC50 in data set [2] of 40.4 ± 0.87 µM.
In turn, `O=C(Nc1ccccc1Br)c1cc(S(=O)(=O)Nc2ccc(Cl)cc2)c([N+](=O)[O-])cc1Cl` [Compound 5h, N-(2-Bromophenyl)-2-chloro-5-[(4-chlorophenyl)sulfamoyl]-4-nitrobenzamide] yielded a melting point of 180 to 182 °C. Further, it took 40.6 ± 1.49 µM to reach half-maximal inhibition in data set [1] (IC50). In data set [2], the IC50 amounted to 19.3 ± 0.63 µM.
On to `CCCCNC(=O)c1cc(S(=O)(=O)Nc2ccc(Cl)cc2)c([N+](=O)[O-])cc1Cl` [Compound 5t, N-Butyl-2-chloro-5-[(4-chlorophenyl)sulfamoyl]-4-nitrobenzamide], for which the melting point lay in the range of 111 to 113 °C. The same molecule returned an IC50 in data set [1] of 131 ± 2.42 µM. It took 55.1 ± 0.71 µM to reach half-maximal inhibition in data set [2] (IC50).
In the same order, the values of `Cc1c(NC(=O)c2cc(S(=O)(=O)Nc3ccc(Cl)cc3)c([N+](=O)[O-])cc2Cl)cccc1[N+](=O)[O-]` [Compound 5m, 2-Chloro-5-[(4-chlorophenyl)sulfamoyl]-N-(2-methyl-3-nitrophenyl)-4-nitrobenzamide] are 170 to 172 °C, 24.5 ± 1.23 µM and 1.52 ± 0.84 µM.
The corresponding values for `COc1ccc(NC(=O)c2cc(S(=O)(=O)Nc3ccc(Cl)cc3)c([N+](=O)[O-])cc2Cl)cc1` [Compound 5d, 2-Chloro-5-[(4-chlorophenyl)sulfamoyl]-N-(4-methoxyphenyl)-4-nitrobenzamide] are 150 to 152 °C, 38.57 ± 0.01 µM and 38 ± 0.51 µM.
`O=C(Nc1cccc(Cl)c1)c1cc(S(=O)(=O)Nc2ccc(Cl)cc2)c([N+](=O)[O-])cc1Cl` [Compound 5i, 2-Chloro-N-(3-chlorophenyl)-5-[(4-chlorophenyl)sulfamoyl]-4-nitrobenzamide] had a melting point of 220 to 222 °C. This molecule also had an IC50 in data set [1] of 14 ± 0.93 µM. Moreover, inhibition in data set [2] was half-maximal at 27.1 ± 0.51 µM (IC50).
For the molecule `O=C(Nc1ccc([N+](=O)[O-])cc1)c1cc(S(=O)(=O)Nc2ccc(Cl)cc2)c([N+](=O)[O-])cc1Cl` [Compound 5q], the melting point fell in the range of 177 to 179 °C. In data set [1], this molecule had an IC50 of 43.9 ± 1.18 µM. The IC50 in data set [2] stood at 11.2 ± 0.67 µM.
As for `COc1ccccc1NC(=O)c1cc(S(=O)(=O)Nc2ccc(Cl)cc2)c([N+](=O)[O-])cc1Cl` [Compound 5e, 2-Chloro-5-[(4-chlorophenyl)sulfamoyl]-N-(2-methoxyphenyl)-4-nitrobenzamide], the melting point was 164 to 166 °C. The IC50 in data set [1] stood at 41.7 ± 1.08 µM. The molecule further gave an IC50 in data set [2] of 50.3 ± 0.21 µM.
The molecule `O=C(Nc1ccccc1Cl)c1cc(S(=O)(=O)Nc2ccc(Cl)cc2)c([N+](=O)[O-])cc1Cl` [Compound 5j, 2-Chloro-N-(2-chlorophenyl)-5-[(4-chlorophenyl)sulfamoyl]-4-nitrobenzamide] had a melting point of 176 to 178 °C. Further, 15.8 ± 0.9 µM corresponded to half-maximal inhibition in data set [1] (IC50). The same molecule yielded an IC50 in data set [2] of 20.9 ± 1.24 µM.
